Target: Potassium voltage-gated channel subfamily A member 5 (Homo sapiens, UniProt P22460)
Test: Inhibition of human Kv1.5 ion channel expressed in CHO K1 cells
Assay type: cell-based
Details: not given

Chain of Potassium voltage-gated channel subfamily A member 5 (P22460 whole entry): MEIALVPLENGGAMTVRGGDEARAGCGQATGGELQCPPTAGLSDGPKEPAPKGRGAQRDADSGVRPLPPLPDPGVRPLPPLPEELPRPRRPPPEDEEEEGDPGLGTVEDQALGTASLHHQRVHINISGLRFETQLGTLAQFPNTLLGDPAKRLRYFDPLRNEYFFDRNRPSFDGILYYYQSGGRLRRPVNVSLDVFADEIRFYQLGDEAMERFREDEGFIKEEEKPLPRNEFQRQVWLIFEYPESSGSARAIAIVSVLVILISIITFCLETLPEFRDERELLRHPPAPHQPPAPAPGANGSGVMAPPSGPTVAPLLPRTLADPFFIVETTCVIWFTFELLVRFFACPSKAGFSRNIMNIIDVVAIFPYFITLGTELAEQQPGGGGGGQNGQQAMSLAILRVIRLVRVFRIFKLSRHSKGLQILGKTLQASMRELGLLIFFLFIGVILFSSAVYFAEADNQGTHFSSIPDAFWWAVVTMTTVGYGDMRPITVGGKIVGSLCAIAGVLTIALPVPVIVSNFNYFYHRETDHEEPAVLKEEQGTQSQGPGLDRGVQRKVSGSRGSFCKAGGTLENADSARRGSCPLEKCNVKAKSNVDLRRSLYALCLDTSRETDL

Structure (SMILES)	IC50
CC(C)(CNC(=O)C1(C#N)CCOCC1)CN(C1=NS(=O)(=O)c2cc(F)ccc21)c1ccccc1	560 nM
CC(C)(CNC(=O)c1cc2ccccc2o1)CN(C1=NS(=O)(=O)c2cc(F)ccc21)c1ccccc1	> 50000 nM
CC(C)(CNC(=O)C1(C)CC1)CN(C1=NS(=O)(=O)c2cc(F)ccc21)c1ccccc1	370 nM
CN1CCCCC1C(=O)NCC(C)(C)CN(C1=NS(=O)(=O)c2cc(F)ccc21)c1ccccc1 (stereo not drawn)	2880 nM
CC(C)(CNC(=O)c1ccoc1)CN(C1=NS(=O)(=O)c2cc(F)ccc21)c1ccccc1	360 nM
CC(C)(CNC(=O)c1cnccn1)CN(C1=NS(=O)(=O)c2cc(F)ccc21)c1ccccc1	350 nM
CC(C)(CNC(=O)C1(C(F)(F)F)CCC1)CN(C1=NS(=O)(=O)c2cc(F)ccc21)c1ccccc1	320 nM
COc1cnccc1C(=O)NCC(C)(C)CN(C1=NS(=O)(=O)c2cc(F)ccc21)c1ccccc1	370 nM
CC(C)(CNC(=O)C1(N)CC1)CN(C1=NS(=O)(=O)c2cc(F)ccc21)c1ccccc1	790 nM
CC(C)(CNC(=O)N1CCCC1)CN(C1=NS(=O)(=O)c2cc(F)ccc21)c1ccccc1	340 nM
CC(C)(CNC(=O)C1COCCN1)CN(C1=NS(=O)(=O)c2cc(F)ccc21)c1ccccc1 (stereo not drawn)	2000 nM
CC(C)(CNC(=O)c1ccncc1O)CN(C1=NS(=O)(=O)c2cc(F)ccc21)c1ccccc1	> 50000 nM
CN1CCC(C(=O)NCC(C)(C)CN(C2=NS(=O)(=O)c3cc(F)ccc32)c2ccccc2)CC1	> 50000 nM
CC(C)(CNC(=O)CC1CCCCO1)CN(C1=NS(=O)(=O)c2cc(F)ccc21)c1ccccc1 (stereo not drawn)	780 nM
CC(C)(CNC(=O)c1cscn1)CN(C1=NS(=O)(=O)c2cc(F)ccc21)c1ccccc1	290 nM
CC(C)(CNC(=O)C1CCCCO1)CN(C1=NS(=O)(=O)c2cc(F)ccc21)c1ccccc1 (stereo not drawn)	440 nM
CC(C)(CNC(=O)C1CCOCC1(C)C)CN(C1=NS(=O)(=O)c2cc(F)ccc21)c1ccccc1 (stereo not drawn)	960 nM
CC(=O)NCC(C)(C)CN(C1=NS(=O)(=O)c2cc(F)ccc21)c1ccccc1	1180 nM

Tested on: not listed separately
Test: Half life in rat liver microsome
Assay type: ADME
Details: liver microsomes

Structure (SMILES)	half-life
CC(C)(CNC(=O)N1CCOCC1)CN(C1=NS(=O)(=O)c2cc(F)ccc21)c1ccccc1	60 min
CC(C)(CNC(=O)C1CCOCC1)CN(C1=NS(=O)(=O)c2cc(F)ccc21)c1ccccc1	26 min
CC(C)(CNC(=O)N1CCOCC1)CN(C1=NS(=O)(=O)c2ccccc21)c1ccccc1	30 min
CC(C)(CNC(=O)c1cccc(C(F)(F)F)c1)CN(C1=NS(=O)(=O)c2ccccc21)c1ccccc1	< 15 min
CC(CNC(=O)c1ccc(F)cc1)CN(C1=NS(=O)(=O)c2ccccc21)c1ccccc1 (stereo not drawn)	22 min
CC(C)(CNC(=O)C1CCOCC1)CN(C1=NS(=O)(=O)c2ccccc21)c1ccccc1	32 min
O=C(NCCCN(C1=NS(=O)(=O)c2ccccc21)c1ccccc1)c1ccc(F)cc1	< 15 min
CC(C)(CNC(=O)c1ccc(F)cc1)CN(C1=NS(=O)(=O)c2ccccc21)c1ccccc1	< 15 min
CC(C)(CNC(=O)c1cccc(C(F)(F)F)c1)CN(C1=NS(=O)(=O)c2cc(F)ccc21)c1ccccc1	39 min

Target: Potassium voltage-gated channel subfamily A member 3 (Homo sapiens, UniProt P22001)
Sequence (P22001 whole entry): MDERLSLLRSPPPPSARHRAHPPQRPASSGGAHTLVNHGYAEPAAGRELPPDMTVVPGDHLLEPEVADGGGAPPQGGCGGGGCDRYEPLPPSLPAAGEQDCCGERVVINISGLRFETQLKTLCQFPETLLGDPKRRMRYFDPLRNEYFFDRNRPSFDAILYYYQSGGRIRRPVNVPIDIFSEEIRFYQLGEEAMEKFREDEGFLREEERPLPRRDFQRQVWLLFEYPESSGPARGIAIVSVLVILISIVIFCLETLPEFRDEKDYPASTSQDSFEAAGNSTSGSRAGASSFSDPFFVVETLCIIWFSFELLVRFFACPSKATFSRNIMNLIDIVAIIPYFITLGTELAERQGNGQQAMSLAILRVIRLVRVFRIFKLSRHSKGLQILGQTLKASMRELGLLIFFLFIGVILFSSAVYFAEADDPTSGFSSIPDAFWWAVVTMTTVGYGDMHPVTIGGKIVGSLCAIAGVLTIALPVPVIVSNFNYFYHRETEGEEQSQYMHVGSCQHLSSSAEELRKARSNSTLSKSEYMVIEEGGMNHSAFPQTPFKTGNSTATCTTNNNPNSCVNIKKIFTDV
Test: Inhibition of human Kv1.3 ion channel expressed in CGE22 cells
Assay type: cell-based
Details: not given

Structure (SMILES)	IC50
CC(C)(CNC(=O)N1CCOCC1)CN(C1=NS(=O)(=O)c2cc(F)ccc21)c1ccccc1	340 nM
CC(C)(CNC(=O)C1CCOCC1)CN(C1=NS(=O)(=O)c2cc(F)ccc21)c1ccccc1	530 nM
CC(C)(CNC(=O)N1CCOCC1)CN(C1=NS(=O)(=O)c2ccccc21)c1ccccc1	470 nM
CC(C)(CNC(=O)c1cccc(C(F)(F)F)c1)CN(C1=NS(=O)(=O)c2ccccc21)c1ccccc1	560 nM
CC(CNC(=O)c1ccc(F)cc1)CN(C1=NS(=O)(=O)c2ccccc21)c1ccccc1 (stereo not drawn)	440 nM
CC(C)(CNC(=O)C1CCOCC1)CN(C1=NS(=O)(=O)c2ccccc21)c1ccccc1	700 nM
CC(C)(CNC(=O)C1(C#N)CCOCC1)CN(C1=NS(=O)(=O)c2cc(F)ccc21)c1ccccc1	330 nM
CC(C)(CNC(=O)c1cc2ccccc2o1)CN(C1=NS(=O)(=O)c2cc(F)ccc21)c1ccccc1	> 50000 nM
CC(C)(CNC(=O)C1(C)CC1)CN(C1=NS(=O)(=O)c2cc(F)ccc21)c1ccccc1	200 nM
CN1CCCCC1C(=O)NCC(C)(C)CN(C1=NS(=O)(=O)c2cc(F)ccc21)c1ccccc1 (stereo not drawn)	3400 nM
CC(C)(CNC(=O)c1ccc(F)cc1)CN(C1=NS(=O)(=O)c2ccccc21)c1ccccc1	160 nM
CC(C)(CNC(=O)c1ccoc1)CN(C1=NS(=O)(=O)c2cc(F)ccc21)c1ccccc1	150 nM
CC(C)(CNC(=O)c1cnccn1)CN(C1=NS(=O)(=O)c2cc(F)ccc21)c1ccccc1	230 nM
CC(C)(CNC(=O)C1(C(F)(F)F)CCC1)CN(C1=NS(=O)(=O)c2cc(F)ccc21)c1ccccc1	90 nM
COc1cnccc1C(=O)NCC(C)(C)CN(C1=NS(=O)(=O)c2cc(F)ccc21)c1ccccc1	200 nM
CC(C)(CNC(=O)C1(N)CC1)CN(C1=NS(=O)(=O)c2cc(F)ccc21)c1ccccc1	530 nM
CC(C)(CNC(=O)N1CCCC1)CN(C1=NS(=O)(=O)c2cc(F)ccc21)c1ccccc1	300 nM
CC(C)(CNC(=O)C1COCCN1)CN(C1=NS(=O)(=O)c2cc(F)ccc21)c1ccccc1 (stereo not drawn)	1260 nM
CC(C)(CNC(=O)c1ccncc1O)CN(C1=NS(=O)(=O)c2cc(F)ccc21)c1ccccc1	> 50000 nM
CN1CCC(C(=O)NCC(C)(C)CN(C2=NS(=O)(=O)c3cc(F)ccc32)c2ccccc2)CC1	> 50000 nM
CC(C)(CNC(=O)CC1CCCCO1)CN(C1=NS(=O)(=O)c2cc(F)ccc21)c1ccccc1 (stereo not drawn)	1350 nM
CC(C)(CNC(=O)c1cscn1)CN(C1=NS(=O)(=O)c2cc(F)ccc21)c1ccccc1	540 nM
CC(C)(CNC(=O)c1cccc(C(F)(F)F)c1)CN(C1=NS(=O)(=O)c2cc(F)ccc21)c1ccccc1	700 nM
CC(C)(CNC(=O)C1CCCCO1)CN(C1=NS(=O)(=O)c2cc(F)ccc21)c1ccccc1 (stereo not drawn)	640 nM
CC(C)(CNC(=O)C1CCOCC1(C)C)CN(C1=NS(=O)(=O)c2cc(F)ccc21)c1ccccc1 (stereo not drawn)	840 nM
CC(=O)NCC(C)(C)CN(C1=NS(=O)(=O)c2cc(F)ccc21)c1ccccc1	1180 nM

Source: ChEMBL document CHEMBL1287701, “Substituted N-{3-[(1,1-dioxido-1,2-benzothiazol-3-yl)(phenyl)amino]propyl}benzamide analogs as potent Kv1.3 ion channel blockers. Part 2” (Bioorg Med Chem Lett, 2010)
